The values below come from publication PMC7064771, “Repurposed Drugs That Block the Gonococcus-Complement Receptor 3 Interaction Can Prevent and Cure Gonococcal Infection of Primary Human Cervical Epithelial Cells” (mBio, 2020).

Data set [1] concerns the target T1, human rI-domain (Homo sapiens, UniProt P11215).
T1 construct: Recombinant human and mouse I-domain proteins were made and purified as previously described; made in house
As to the kind of experiment: Direct competition SPR, drug versus N. gonorrhoeae MS11 pilin. The class given is binding. Conditions: drug and pilin at 1 μM.

The subject of data set [2] is N. gonorrhoeae adherence to Pex cells. Description: Fluorometric adherence assay, Pex cells. The class given is cell-based, human. Conditions: for Gonococcal adherence to Pex cells (fluorescence): 1-h infection with GFP-expressing N. gonorrhoeae, competitor added simultaneously. On the procedure:
(§1) Fluorometric adherence assays were performed essentially as described previously ([36]). In brief, N. gonorrhoeae MS11 gfp was used to challenge (1 h) Pex or CHO cells simultaneously with peptide or drug competitor. Infected (devoid of peptide or drug) and uninfected (with peptide, drug, or dimethyl sulfoxide [DMSO] vehicle) control cell assays were treated in parallel with competitive peptide/drug inhibition assays. Fluorescence (485 nm excitation, 528 nm emission) intensity, corresponding to bacterial adherence, was recorded using a Synergy HT multimode microplate reader (BioTek Instruments, Winooski, VT, USA). Blank wells, devoid of Pex or CHO cells, were inoculated with bacteria and served as a control for nonspecific binding. Each assay was performed in triplicates on 3 separate occasions. Peptides used are described in Table S1. A nonparametric analysis of variance (ANOVA) was used to determine the statistical significance of the calculated mean of bacterial adherence.

Data set [3] concerns N. gonorrhoeae infection of Pex cells. Conditions: for N. gonorrhoeae strain MS11 survival / Numbers of viable gonococci, low-passage-number gonococcal isolates: 24 h posttreatment; for N. gonorrhoeae strain MS11 survival: 100 pM to 100 μM; for Numbers of viable gonococci, low-passage-number gonococcal isolates: established Pex cell infections; for Efficacy in treating multidrug-resistant gonococci compared with ceftriaxone: panel of multidrug-resistant N. gonorrhoeae isolates. On the procedure:
Infection studies were performed as previously described with modification using a multiplicity of infection of 100 ([44]). To establish infection before treatment, Pex cells were challenged with N. gonorrhoeae for 90 min. The infection medium was then removed, the cells were rinsed thrice, and fresh medium containing 0.1% DMSO (vehicle control), carbamazepine (100 pM to 100 μM), methyldopa (100 pM to 100 μM), or ceftriaxone (0.1 μg/ml or 0.5 μg/ml, positive control) was added. Infections then proceeded for an additional 24 h or 48 h, after which, the infection medium was removed. Pex cell monolayers were subsequently lysed, serial dilutions of the Pex cell lysates were plated, and viable gonococci were enumerated by counting CFU after 48 h of incubation (37°C, 5% CO2). For sequential infection assays, viable bacterial colonies that survived a treatment assay were harvested from the enumeration (CFU) plates and used to inoculate new Pex cell monolayers. For these sequential assays, each infection (the original infection or the infection with bacteria that had survived the original infection) proceeded for 24 h. Pex cells were then processed, and bacteria were enumerated, as described above. For all assays, the percentage of N. gonorrhoeae that survived carbamazepine, methyldopa, or ceftriaxone treatment was determined as a function of bacteria that survived DMSO treatment (set to 100%). All assays were performed in triplicates on 3 separate occasions. A nonparametric ANOVA was used to determine the statistical significance of bacterial survival.

Data set [4] has as its target T1, human rI-domain. Description: Repurposed drug SPR against human CR3 I-domain (single-cycle kinetics). Conditions: 10 nM to 0.625 nM, read-out: KD, binding to human rI-domain. How it is done:
Human rI-domain was immobilized onto a CM5 sensor chip with a blank control flow cell as described above. A combination of two FDA-approved drug libraries, Microsource-CPOZ (2,400 drugs) and ML Drug (741 drugs), was purchased from Compounds Australia. […] A single-concentration injection screen (yes/no) binding assay was performed. Binding was determined based on the response unit shift (equal to the molecular weight-corrected response units of the positive-control glycan) of the stability of the binding phase of the dissociation cycle. […] For carbamazepine and methyldopa, saturation occurred between 1.6 nM and 8 nM, and so a new concentration range (10 nM to 0.625 nM) was tested. […] All SPR sensorgrams and result plots described above were analyzed with Biacore S200 evaluation software (GE Healthcare Life Sciences). A literature review was used to evaluate the remaining drugs for known long-term safety in humans and known therapeutic concentrations.

Another data set concerns N. gonorrhoeae strains. As to the kind of experiment: Well diffusion assay. Type of data set: cell-based, Neisseria gonorrhoeae. To be noted: 100 pM to 100 μM in wells, overnight. How it is done:
Well diffusion assays were performed essentially as described previously ([56]). Briefly, N. gonorrhoeae strains were spread uniformly across the surfaces of GC agar plates at a culture density of 10^7 bacteria per ml. Wells were then punctured within the agar surface to which carbamazepine or methyldopa (100 pM to 100 μM), 0.2 μg/ml ceftriaxone, 10 μg/ml ciprofloxacin, or 1% DMSO (vehicle control) was added. Following an overnight incubation (37°C, 5% CO2), inhibition of N. gonorrhoeae growth was measured as the diameter (in millimeters) of the area of clearing surrounding (and inclusive of) each well on each agar plate, i.e., the zone of inhibition (ZOI). For agar plates in which a ZOI was not visible, data were recorded as the diameter of the well (6 mm). Assays were performed in triplicates on 3 separate occasions. Statistical significance of data obtained was determined using a Student's t test.

Data set [5] has as its system N. gonorrhoeae adherence to CHO-neo cells. As to the kind of experiment: Fluorometric adherence assay, CHO-neo cells. Conditions: 1-h infection; cells do not express CR3. The class given is cell-based, Chinese hamster. On the procedure: as §1
Data set [6] relates to N. gonorrhoeae adherence to CHO-CR3 cells. Description: Fluorometric adherence assay, CHO-CR3 cells. The class given is cell-based, Chinese hamster. Conditions: for Gonococcal adherence to CHO-CR3 cells (fluorescence): 1-h infection with GFP-expressing N. gonorrhoeae, competitor added simultaneously. On the procedure: as §1
The conditions of data set [7]: orally administered, prescribed use; cited from earlier work.
In a further data set the target is T2, rCR3 (Homo sapiens, UniProt P11215).
T2 construct: purchased R&D Systems
Description: Competitive SPR peptide library screen with galactobiose, rCR3. The class given is binding. To be noted: peptide-galactobiose molar ratio 25:1. An excerpt:
(§2) The human I-domain sequence (NP_000623.2, amino acids Gly127 to Ala325 of CD11b) was used to generate a peptide library (Mimotopes; Mulgrave, VIC, Australia). Each peptide comprised 15 amino acids, with a 5-amino-acid sliding window, to give a 10-amino-acid overlap down the sequence, for a total of 40 peptides (see Table S1 in the supplemental material). Competitive SPR (Biacore T200 system; GE Healthcare Life Sciences) was used to screen the blocking potential of the peptide library. To this end, 100 μg/ml of each peptide was mixed with […] (2 μM) α1-3 galactobiose and flowed over immobilized human rI-domain and rCR3 on a Series S CM5 chip. Flow cell 1 was a blank immobilization/reference cell. Blocking peptides were defined as those peptides in which the peptide plus glycan response was less than those for the peptide and glycan alone. SPR sensorgrams were analyzed as noted above.

Data set [8] concerns the target T1, human rI-domain. As to the kind of experiment: Competitive SPR peptide library screen with galactobiose, rI-domain. Conditions: peptide-galactobiose molar ratio 25:1. Type of data set: binding.
Description: as §2

Entries after “also recorded” stand apart in the source; their conditions may differ.

One may read the Kd as the constant that tells how readily two partners part at equilibrium. Turning to `NC(=O)N1c2ccccc2C=Cc2ccccc21` [carbamazepine], the “Blocking of the interaction of N. gonorrhoeae MS11 pilin with rCR3 or rI-domain” value on human rI-domain [1] is given as “completely blocked”. In data set [2], the “Gonococcal adherence to Pex cells (fluorescence)” value was “dose-dependent decrease; also recorded: decreased in a dose-dependent manner”. In addition, in [3], the “N. gonorrhoeae strain MS11 survival” value is listed as “dose-dependent reductions”; the “Numbers of viable gonococci, low-passage-number gonococcal isolates” value was “significant reductions”; the “Efficacy in treating multidrug-resistant gonococci compared with ceftriaxone” value is reported as “more effective than ceftriaxone”. The “Killing of survivor population in second sequential infection” value in data set [3] (bacteria harvested from a 24-h treated infection, re-used and treated again for 24 h) came to 100%. Further, the Kd on human rI-domain [4] was 2.12 nM. Moreover, the “Effect on gonococcal viability in the absence of Pex cells (zone of inhibition)” value in the data set with N. gonorrhoeae strains was “neither carbamazepine nor methyldopa had an effect; also recorded: no effect”. Besides, in data set [5], the “Gonococcal adherence to CHO-neo cells (fluorescence)” value is given as “no effect; also recorded: but not to CHO-neo cells”. The “Gonococcal adherence to CHO-CR3 cells (fluorescence)” value in [6] is “dose-dependent decrease; also recorded: decreased in a dose-dependent manner”. Besides, the Concentration in serum in data set [7] was about 17 µM.
As to `C[C@](N)(Cc1ccc(O)c(O)c1)C(=O)O` [methyldopa], the “Blocking of the interaction of N. gonorrhoeae MS11 pilin with rCR3 or rI-domain” value on human rI-domain [1] is recorded as “completely blocked”. For the same molecule, in [2], the “Gonococcal adherence to Pex cells (fluorescence)” value is given as “decreased in a dose-dependent manner”. In data set [2] (listed as Methyldopa), the “Gonococcal adherence to Pex cells (fluorescence)” value is recorded as “dose-dependent decrease”. For the same molecule, in data set [3], the “N. gonorrhoeae strain MS11 survival” value is “dose-dependent reductions”; the “Numbers of viable gonococci, low-passage-number gonococcal isolates” value is given as “significant reductions”; the “Efficacy in treating multidrug-resistant gonococci compared with ceftriaxone” value is given as “more effective than ceftriaxone”. Further, the Kd on human rI-domain [4] amounted to 1.01 nM. Moreover, the “Effect on gonococcal viability in the absence of Pex cells (zone of inhibition)” value with N. gonorrhoeae strains is listed as “no effect; also recorded: neither carbamazepine nor methyldopa had an effect”. Besides, the “Gonococcal adherence to CHO-neo cells (fluorescence)” value in [5] is “but not to CHO-neo cells”. The “Gonococcal adherence to CHO-CR3 cells (fluorescence)” value in data set [6] is “decreased in a dose-dependent manner; also recorded: CR3- and dose-dependent reduction”.
H-RIHFTFKEFQNNPNP-OH [G2]: the “Blocking of galactobiose binding to rCR3” value with rCR3 was “able to block”. Further, in data set [2] (100 μM peptide, P ≥ 0.45), the “Gonococcal adherence to Pex cells, difference from uninfected cells” value was “not significantly”. Moreover, in data set [2], the “Gonococcal adherence to Pex cells (fluorescence)” value is reported as “decreased; also recorded: dose-dependent reduction”. In addition, the “Gonococcal adherence to CHO-CR3 cells, difference from uninfected cells” value in data set [6] (100 μM peptide, P ≥ 0.67) is “not significantly”. In addition, the “Gonococcal adherence to CHO-CR3 cells (fluorescence)” value in data set [6] was “decreased; also recorded: dose-dependent reduction”. Moreover, in the data set with human rI-domain [8], the “Blocking of galactobiose binding to rI-domain” value is given as “able to block”.
